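The compound was tested at five concentrations on cells cultured in 96-well plates, with a 48-hour exposure period. GI50 = concentration required for 50% inhibition of growth. TGI denotes the concentration required for complete inhibition of growth.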 Bounds are passed on as bounds.

What all share (assay): NCI-60 cell line screen, 48 h
Experiment [1] deals with NCI-H23 lung.
For experiment [2], the system named is M14 melanoma.
The test system of experiment [3] is TK-10 renal.
The test system of experiment [4] is SNB-19 CNS.
The subject of experiment [5] is NCI/ADR-RES ovarian.
Experiment [6] concerns DU-145 prostate.
Experiment [7] has as its system K-562 leukemia.
Experiment [8] relates to MCF7 breast.
Experiment [9] concerns NCI-H460 lung.
Experiment [10] relates to SK-MEL-28 melanoma.
Experiment [11] relates to CAKI-1 renal.
The test system of experiment [12] is SF-539 CNS.
The test system of experiment [13] is HS 578T breast.

For the compound `CCN1CCCC(Nc2cc(C)nc(/N=C(/N)Nc3ccc(Cl)c(Cl)c3)n2)C1` (stereo unspecified), the TGI in experiment [1] worked out at 4.81 µM; in experiment [2], 0.684 µM; in experiment [3], 3.22 µM; in experiment [4], 5.59 µM; in experiment [5], 8.58 µM; in experiment [6], 15.3 µM. In addition, the TGI in experiment [7] was 0.558 µM; in [8] it was 3.59 µM; in experiment [9] it was 2.93 µM; in experiment [10], 3.34 µM; in experiment [11], 3.1 µM; in experiment [12] it was 3.66 µM.
Consider `CSc1ncc2c(n1)-c1ccccc1OC2NC(C)(C)C` (stereo unspecified), for which the TGI in experiment [1], in experiment [2], in experiment [3], in experiment [4], in [13] and in experiment [6] was more than 100 µM throughout. Moreover, the TGI in experiment [7], in experiment [8], in experiment [9], in [10], in [11] and in [12] was more than 100 µM each time.
For the compound `C#CCSc1nc(N)c2ncn(C3OC(COP(=O)(O)O)C(O)C3O)c2n1` (stereo unspecified), the TGI in experiment [1], in [2], in [3], in experiment [4], in experiment [7] and in experiment [9] was more than 239 µM throughout. For the same compound, the TGI in [10], in [11] and in [12] was more than 239 µM in each case.
As for `Nc1ccc(C(=O)NN2C(=O)C(Cl)C2c2cccc(O)c2)cc1` (stereo unspecified), the TGI in experiment [1] was determined as 33.2 µM; in experiment [2], 35.2 µM; in experiment [3] it was 30.5 µM; in [4] it was 30.5 µM; in experiment [7], 44.5 µM; in experiment [9] it was 29.7 µM. Further, the TGI in experiment [10] was determined as 31.9 µM; in experiment [11], 41.9 µM; in [12], 31.6 µM.
Turning to `COc1ccc(-c2onc(-c3c(C)cc(C)cc3C)c2C2=NCCN2)cc1`, the TGI was more than 100 µM in [1]; 35.8 µM in [2]; more than 100 µM in [4]; more than 100 µM in [7]; more than 100 µM in experiment [9]; 48.2 µM in experiment [10]. The results for the TGI in experiment [11] and in [12] were more than 100 µM and 44.1 µM, respectively.
In the case of `Cc1nn(C)c2nc3ccc(Cl)cc3c(-c3ccccc3)c12`, the TGI in experiment [1], in [2], in experiment [4], in [5], in experiment [6] and in experiment [7] was more than 100 µM in each case. The TGI in experiment [8], in experiment [9], in experiment [10], in [11] and in [12] was more than 100 µM in each case.
Regarding `CC(=O)Nc1ccc(C(=O)NN2C(=O)C(Cl)C2c2ccc(O)cc2)cc1` (stereo unspecified), the TGI in experiment [2], in experiment [3], in experiment [4], in experiment [7], in experiment [9] and in experiment [10] was more than 100 µM in each case. Further, the TGI in [11] and in experiment [12] was more than 100 µM throughout.
As to `CC1=NN(C(=O)c2ccc(Cl)cc2)C(=O)/C1=C/c1ccc(Cl)cc1`, the TGI in experiment [1], in experiment [2], in experiment [3], in [4], in experiment [7] and in experiment [9] was more than 100 µM in each case. Further, the TGI in experiment [10], in [11] and in [12] was more than 100 µM in each case.
On to `Nc1ccc(-c2nc3ccc(F)cc3s2)cc1`, for which the TGI is more than 100 µM in experiment [1]; more than 100 µM in experiment [2]; 78.8 µM in [3]; more than 100 µM in [4]; more than 100 µM in [13]; more than 100 µM in [5]. The TGI in experiment [6] is 98.6 µM; in experiment [7], more than 100 µM; in [9], more than 100 µM; in experiment [10] it was more than 100 µM; in experiment [11], 95.5 µM; in experiment [12], more than 100 µM. Further, the GI50 in experiment [9] was 24.4 µM.
On to `O/N=C1/C2CC3CC1(c1ccccc1)CC(/C3=N/O)/C2=N\O` (stereo unspecified), for which the TGI in [1], in [2], in experiment [3], in experiment [4], in [13] and in experiment [6] was more than 100 µM in each case. The TGI in experiment [7], in experiment [8], in [9], in experiment [10], in [11] and in experiment [12] was more than 100 µM in each case.
With `COc1cc(OC)cc(-n2c(N)c(-c3nc4ccccc4n3C)c3ccc([N+](=O)[O-])cc3c2=O)c1`, the TGI is more than 100 µM in experiment [1]; more than 100 µM in [3]; more than 100 µM in experiment [4]; 83.3 µM in experiment [13]; more than 100 µM in experiment [5]; more than 100 µM in experiment [6]. Further, the TGI in experiment [7], in experiment [9], in experiment [10] and in experiment [11] was more than 100 µM each time.
With `CN1Cc2c(nc(-c3ccc(Br)cc3)c[n+]2[O-])N(C)C1`, the TGI in experiment [1], in experiment [2], in [4], in experiment [7], in [9] and in experiment [10] was more than 100 µM each time. Besides, the TGI in experiment [11] and in experiment [12] was more than 100 µM in each case.
On to `CN(C)C(=O)C(F)(F)C(c1ccc(Br)cc1)C1C(=O)N(C)C(=O)N(C)C1=O` (stereo unspecified), for which the TGI in [1], in experiment [2], in [3], in experiment [4], in experiment [5] and in experiment [6] was more than 100 µM each time. For the same compound, the TGI in experiment [7], in experiment [8], in experiment [9], in experiment [10] and in [11] was more than 100 µM each time.
Consider `O=C(N/N=C/c1ccc(Cl)cc1)c1cc(I)cc(I)c1O`, for which the TGI in [1], in [2], in experiment [3], in experiment [4], in [5] and in experiment [6] was more than 100 µM throughout. For the same compound, the TGI in experiment [7], in [8], in [10], in experiment [11] and in [12] was more than 100 µM in each case.
With `O=C(O)c1cc(Cl)cc2c1NC1(N2)C(=O)Nc2ccccc21` (stereo unspecified), the TGI in experiment [1], in experiment [2], in experiment [3], in [4], in experiment [5] and in [6] was more than 100 µM in each case. The TGI in experiment [7], in experiment [8], in [9], in [10], in [11] and in experiment [12] was more than 100 µM each time.
With `CCOC(=O)c1c(NCc2ccccc2)n(-c2ccccc2)c(=S)n(-c2ccccc2)c1=O`, the TGI was more than 100 µM in experiment [1]; more than 100 µM in experiment [2]; more than 100 µM in [3]; more than 100 µM in experiment [4]; 94.4 µM in experiment [13]; more than 100 µM in experiment [6]. Also, the TGI in [7], in experiment [8], in experiment [9] and in experiment [10] was more than 100 µM throughout.
Consider `CC1C2CC(C/C2=N/O)C1(C)C` (stereo unspecified), for which the TGI in experiment [1], in experiment [2], in experiment [3], in [4], in experiment [13] and in experiment [6] was more than 100 µM each time. Also, the TGI in experiment [7], in experiment [8], in experiment [9], in experiment [10], in experiment [11] and in experiment [12] was more than 100 µM each time.
`CC(=O)CC(C)(C)NC(=O)[C@@]1(O)CC[C@H]2[C@@H]3CCC4=CC(=O)CC[C@@H]4[C@H]3CC[C@@]21C`: the TGI in experiment [1], in experiment [2], in experiment [3], in experiment [4], in experiment [13] and in experiment [5] was more than 100 µM each time. Further, the TGI in experiment [6], in [7], in [9], in experiment [10] and in experiment [12] was more than 100 µM throughout.
As to `C[C@@H]1CC[C@@H](C)[C@](C)(CCc2ccoc2)C/C=C\C=C/1C(=O)O`, the TGI in [1], in [2], in experiment [3], in experiment [4], in experiment [13] and in experiment [5] was more than 50 µM each time. Moreover, the TGI in experiment [7], in experiment [8], in experiment [9], in [10], in experiment [11] and in experiment [12] was more than 50 µM each time.
Consider `C/C(=C\Cc1cc(O)ccc1O)CCc1c(C)c(O)c(O)c(C=O)c1C`, for which the TGI in [1] was 44.7 µM; in experiment [2], 77.3 µM; in experiment [3], more than 100 µM; in experiment [4] it was more than 100 µM; in experiment [7] it was more than 100 µM; in [9], 53.3 µM. Further, the TGI in experiment [10] is 48.5 µM; in [11], 85.6 µM; in experiment [12] it was 42.1 µM.
Regarding `CCCCc1ccc(-n2sc3ncccc3c2=O)cc1`, the TGI is 41.9 µM in [1]; 26.8 µM in experiment [2]; 27.4 µM in [3]; more than 100 µM in experiment [4]; 43.2 µM in experiment [13]; 43.9 µM in experiment [5]. Besides, the TGI in experiment [6] was more than 100 µM; in experiment [8] it was 72.2 µM; in [9], 26 µM; in experiment [10] it was 33.1 µM; in experiment [12], 41 µM.
Turning to `O=C(COc1ccc(Cl)cc1)N1CCN(C(=O)COc2ccc(Cl)cc2)c2ccccc21`, the TGI in [1], in [3], in [7], in experiment [9], in experiment [10] and in experiment [12] was more than 100 µM throughout.
Take `O/N=C1\CCc2nonc2\C1=N/Nc1ccccc1`: the TGI in experiment [1], in experiment [2], in experiment [3], in experiment [4], in experiment [13] and in [5] was more than 100 µM each time. The TGI in experiment [6], in experiment [7], in experiment [9], in experiment [10], in experiment [11] and in experiment [12] was more than 100 µM throughout.
In the case of `CC(=O)Nc1ccc(C(=O)N2N=C(C)/C(=C/c3cccc([N+](=O)[O-])c3)C2=O)cc1`, the TGI in experiment [1], in experiment [2], in experiment [3], in experiment [4], in [7] and in [9] was more than 100 µM each time. Moreover, the TGI in [10], in experiment [11] and in [12] was more than 100 µM in each case.
Turning to `Cc1occ2c1C(=O)CC1C2[C@@H](O)CC2C(C)(C)CCC[C@]12C` (stereo partly specified), the TGI in [1], in experiment [2], in [4], in experiment [7], in [10] and in experiment [12] was more than 100 µM in each case.
As to `COC1(C)C(=O)N2C1N(C(=O)OCc1ccccc1)CC2(C)C` (stereo unspecified), the TGI in experiment [1], in experiment [2], in experiment [3], in [4], in [7] and in experiment [9] was more than 100 µM each time. Further, the TGI in experiment [10] and in experiment [12] was more than 100 µM each time.
